Experimental data published in US8299048B2, “Hexahydrocyclopentyl[f]indazole sulfonamides and derivatives thereof as selective glucocorticoid receptor modulators” (Merck Sharp & Dohme Corp., priority 2008, dated 2012).

Target: T1, human GR (Homo sapiens, UniProt P04150)
T1 sequence (P04150 1-777): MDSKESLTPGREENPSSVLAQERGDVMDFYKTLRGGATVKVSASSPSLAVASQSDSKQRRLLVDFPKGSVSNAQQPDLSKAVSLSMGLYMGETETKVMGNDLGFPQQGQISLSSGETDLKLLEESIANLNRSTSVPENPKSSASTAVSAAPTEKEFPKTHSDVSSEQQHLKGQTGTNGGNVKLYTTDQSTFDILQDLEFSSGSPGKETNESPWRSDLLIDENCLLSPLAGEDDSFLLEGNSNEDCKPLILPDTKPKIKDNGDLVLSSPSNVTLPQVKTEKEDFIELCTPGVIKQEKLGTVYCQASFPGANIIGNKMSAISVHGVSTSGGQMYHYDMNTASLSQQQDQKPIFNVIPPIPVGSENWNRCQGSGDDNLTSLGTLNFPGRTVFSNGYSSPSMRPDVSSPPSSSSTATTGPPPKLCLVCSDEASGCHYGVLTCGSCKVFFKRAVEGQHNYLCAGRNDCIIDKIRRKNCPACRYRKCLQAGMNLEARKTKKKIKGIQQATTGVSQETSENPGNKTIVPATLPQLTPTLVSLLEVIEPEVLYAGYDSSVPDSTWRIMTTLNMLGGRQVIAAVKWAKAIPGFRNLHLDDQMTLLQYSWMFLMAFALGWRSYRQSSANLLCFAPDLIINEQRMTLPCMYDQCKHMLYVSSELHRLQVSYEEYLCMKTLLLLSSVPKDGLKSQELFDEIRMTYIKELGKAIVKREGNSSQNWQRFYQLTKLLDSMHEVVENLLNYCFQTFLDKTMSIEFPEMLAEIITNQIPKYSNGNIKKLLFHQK
Assay: Trans-Activation Modulation of Glucocorticoid Receptor (GRAMMER), MMTV-LUC reporter, agonist mode
Type: cell-based
Design: endogenous in cells
Conditions: for Emax: A549, A549 cells, maximum activity, read-out: Transactivation A549 Cells GRAMMER Emax; for EC50: A549 cells, inflection point, read-out: Transactivation A549 Cells GRAMMER IP
Outline: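 Readout is luciferase from a modified MMTV LTR promoter after 24 h compound exposure alongside 10 nM dexamethasone (100% activity reference), DMSO ≤1%.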

Structure (SMILES)	Emax	EC50
Cc1noc(C)c1S(=O)(=O)N(CCCc1ccccc1)C[C@H]1CCC2=Cc3c(cnn3-c3ccc(F)cc3)C[C@@]21C [Example 194, N-{[(4αR,5S)-1-(4-fluorophenyl)-4α-methyl-1,4,4α,5,6,7-hexahydrocyclopenta[f]indazol-5-yl]methyl}-3,5-dimethyl-N-(3-phenylpropyl)isoxazole-4-sulfonamide]	41.9%	517 nM
C[C@]12Cc3cnn(-c4ccc(F)cc4)c3C=C1CC[C@@H]2CN(CCCc1ccccc1)S(=O)(=O)c1ccccc1F [Example 195, 2-fluoro-N-{[(4αR,5S)-1-(4-fluorophenyl)-4α-methyl-1,4,4α,5,6,7-hexahydrocyclopenta[f]indazol-5-yl]methyl}-N-(3-phenylpropyl)benzenesulfonamide]	12.9%	542 nM
C[C@]12Cc3cnn(-c4ccc(F)cc4)c3C=C1CC[C@@H]2CN(CCc1ccccn1)S(=O)(=O)Cc1ccccc1C(N)=O [Example 196, 2-({[{[(4αR,5S)-1-(4-fluorophenyl)-4α-methyl-1,4,4α,5,6,7-hexahydrocyclopenta[f]indazol-5-yl]methyl}(2-pyridin-2-ylethyl)amino]sulfonyl}methyl)benzamide]	36.6%	552 nM
CC([C@H]1CCC2=Cc3c(cnn3-c3ccc(F)cc3)C[C@@]21C)N(CCc1ccccn1)S(=O)(=O)Cc1cccnc1 (stereo partly drawn) [Example 197, N-{1-[(4αR)-1-(4-fluorophenyl)-4α-methyl-1,4,4α,5,6,7-hexahydrocyclopenta[f]indazol-5-yl]ethyl}-1-pyridin-3-yl-N-(2-pyridin-2-ylethyl)methanesulfonamide]	43.7%	769 nM
C[C@]12Cc3cnn(-c4ccc(F)cc4)c3C=C1CC[C@@H]2CN(CCO)S(=O)(=O)Cc1ccccc1C(N)=O [Example 198, 2-({[{[(4αR,5S)-1-(4-fluorophenyl)-4α-methyl-1,4,4α,5,6,7-hexahydrocyclopenta[f]indazol-5-yl]methyl}(2-hydroxyethyl)amino]sulfonyl}methyl)benzamide]	8.2%	1230 nM

These reach a lower EC50. Values come first.

Emax	EC50	Structure (SMILES)
58.6%	96.8 nM	CC(C)(O)CN(C[C@H]1CCC2=Cc3c(cnn3-c3ccc(F)cc3)C[C@@]21C)S(=O)(=O)c1ccccc1F [Example 199, 2-fluoro-N-{[(4αR,5S)-1-(4-fluorophenyl)-4α-methyl-1,4,4α,5,6,7-hexahydrocyclopenta[f]indazol-5-yl]methyl}-N-(2-hydroxy-2-methylpropyl)benzenesulfonamide]
47.8%	88.4 nM	C[C@]12Cc3cnn(-c4ccc(F)cc4)c3C=C1CC[C@@H]2CN(CC1(O)CCCCC1)S(=O)(=O)c1ccccc1F [Example 201, 2-fluoro-N-{[(4αR,5S)-1-(4-fluorophenyl)-4α-methyl-1,4,4α,5,6,7-hexahydrocyclopenta[f]indazol-5-yl]methyl}-N-[(1-hydroxycyclohexyl)methyl]benzenesulfonamide]
57.5%	47.9 nM	C[C@]12Cc3cnn(-c4ccc(F)cc4)c3C=C1CC[C@@H]2CN(CC1(O)CC1)S(=O)(=O)c1ccccc1F [Example 200, 2-fluoro-N-{[(4αR,5S)-1-(4-fluorophenyl)-4α-methyl-1,4,4α,5,6,7-hexahydrocyclopenta[f]indazol-5-yl]methyl}-N-[(1-hydroxycyclopropyl)methyl]benzenesulfonamide]
